Holding throughout (assay): relative viability (nuclei count vs DMSO), 5 days (fraction); higher = more cells survive
Compound in assay [1]: CC(C)N(CCCNC(=O)Nc1ccc(C(C)(C)C)cc1)C[C@H]1O[C@@H](n2ccc3c(N)ncnc32)[C@H](O)[C@@H]1O + CC(=O)Nc1cccc(-n2c(=O)n(C3CC3)c(=O)c3c(Nc4ccc(I)cc4F)n(C)c(=O)c(C)c32)c1 [Trametinib] (partner 0.02 µM)
In a few lines:
(§1)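 Lung cancer cell lines were seeded in 1536-well plates and dosed by pin tool the next day, with either a single drug or a fixed anchor-drug dose combined with five library-drug doses (not always all listed) spaced in √10 steps. Five days later, one step fixed the cells and stained their nuclei (final 0.05% Triton X-100, 1% formaldehyde, 1 ug/ml Hoechst), and nuclei were counted on 4× images. Relative viability is the nuclei count in treated wells divided by the count in vehicle wells, and each value is the median of duplicate plates.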

Compound in the assay “Shikonin + Phenformin”: CC(C)=CC[C@@H](O)C1=CC(=O)c2c(O)ccc(O)c2C1=O [Shikonin] + N=C(N)NC(=N)NCCc1ccccc1 [Phenformin] (partner 250 µM)
In a few lines:
as §1

Compound in assay [2]: CC(C)N(CCCNC(=O)Nc1ccc(C(C)(C)C)cc1)C[C@H]1O[C@@H](n2ccc3c(N)ncnc32)[C@H](O)[C@@H]1O + O=C(CCCCCCC(=O)Nc1ccccc1)NO [Vorinostat] (partner 1 µM)
In a few lines: as §1

Compound in assay [3]: CC(C)N(CCCNC(=O)Nc1ccc(C(C)(C)C)cc1)C[C@H]1O[C@@H](n2ccc3c(N)ncnc32)[C@H](O)[C@@H]1O + CS(=O)(=O)N1CCN(Cc2cc3nc(-c4cccc5[nH]ncc45)nc(N4CCOCC4)c3s2)CC1 [Pictilisib] (partner 1 µM)
The procedure, abridged: as §1

Regarding NCI-H522, the relative viability in assay [1] (first compound 0.08 µM) was determined as 0.633; in assay [1] (first compound 0.253 µM), 0.763; in assay [1] (first compound 0.8 µM), 0.824; in assay [1] (first compound 2.53 µM) it was 0.798; in assay [1] (first compound 8 µM), 0.845; in the assay with Shikonin + Phenformin (first compound 0.01 µM), 0.663. The relative viability was 0.713 with Shikonin + Phenformin (first compound 0.1 µM); 0.601 with Shikonin + Phenformin (first compound 0.3162 µM); 0.623 with Shikonin + Phenformin (first compound 1 µM); 0.771 in assay [2] (first compound 0.08 µM); 0.801 in assay [2] (first compound 0.253 µM); 0.697 in assay [2] (first compound 0.8 µM). In addition, the results for the relative viability in assay [2] (first compound 2.53 µM) and in assay [2] (first compound 8 µM) were 0.858 and 0.82, respectively.
In the case of NCI-H1299, the relative viability worked out at 0.944 in assay [3] (first compound 0.08 µM); 0.834 in assay [3] (first compound 0.253 µM); 0.912 in assay [3] (first compound 0.8 µM); 0.76 in assay [3] (first compound 2.53 µM); 0.726 in assay [3] (first compound 8 µM).
On to NCI-H1563, for which the relative viability worked out at 0.662 with Shikonin + Phenformin (first compound 0.01 µM); 0.723 with Shikonin + Phenformin (first compound 0.1 µM); 0.643 with Shikonin + Phenformin (first compound 0.3162 µM); 0.673 with Shikonin + Phenformin (first compound 1 µM); 0.678 in assay [3] (first compound 0.08 µM); 0.607 in assay [3] (first compound 0.253 µM). Besides, the values for the relative viability in assay [3] (first compound 0.8 µM), in assay [3] (first compound 2.53 µM) and in assay [3] (first compound 8 µM) were 0.616, 0.679 and 0.636, respectively.
As to NCI-H1648, the relative viability was 0.424 in assay [1] (first compound 0.08 µM); 0.522 in assay [1] (first compound 0.253 µM); 0.406 in assay [1] (first compound 0.8 µM); 0.419 in assay [1] (first compound 2.53 µM); 0.455 in assay [1] (first compound 8 µM); 0.466 in assay [2] (first compound 0.08 µM). Besides, the relative viability was found to be 0.4 in assay [2] (first compound 0.253 µM), 0.407 in assay [2] (first compound 0.8 µM), 0.481 in assay [2] (first compound 2.53 µM) and 0.64 in assay [2] (first compound 8 µM).
In the case of NCI-H1703, the relative viability in assay [3] (first compound 0.08 µM) is 0.223; in assay [3] (first compound 0.253 µM), 0.247; in assay [3] (first compound 0.8 µM), 0.257; in assay [3] (first compound 2.53 µM), 0.244; in assay [3] (first compound 8 µM), 0.24.
Consider NCI-H1792, for which the relative viability in assay [1] (first compound 0.08 µM) is 0.397; in assay [1] (first compound 0.8 µM), 0.372; in assay [1] (first compound 2.53 µM), 0.419; in assay [1] (first compound 8 µM), 0.29; in the assay with Shikonin + Phenformin (first compound 0.01 µM), 0.257; in the assay with Shikonin + Phenformin (first compound 0.1 µM), 0.185. For the same cell line, the relative viability with Shikonin + Phenformin (first compound 0.3162 µM) came out at 0.241; in the assay with Shikonin + Phenformin (first compound 1 µM) it was 0.393; in assay [3] (first compound 0.08 µM), 0.26; in assay [3] (first compound 0.253 µM), 0.245; in assay [3] (first compound 0.8 µM), 0.219; in assay [3] (first compound 2.53 µM), 0.254. The relative viability in assay [3] (first compound 8 µM) turned out to be 0.267.
As for NCI-H2342, the relative viability in assay [1] (first compound 0.08 µM) was found to be 0.781; in assay [1] (first compound 0.253 µM) it was 0.81; in assay [1] (first compound 0.8 µM), 0.692; in assay [1] (first compound 2.53 µM), 0.656; in assay [1] (first compound 8 µM), 0.826; with Shikonin + Phenformin (first compound 0.01 µM) it was 0.679. For the same cell line, the relative viability with Shikonin + Phenformin (first compound 0.1 µM) was determined as 0.538; with Shikonin + Phenformin (first compound 0.3162 µM), 0.653; with Shikonin + Phenformin (first compound 1 µM), 0.587; in assay [2] (first compound 0.08 µM), 0.708; in assay [2] (first compound 0.253 µM) it was 0.744; in assay [2] (first compound 0.8 µM), 0.669. Besides, the results for the relative viability in assay [2] (first compound 2.53 µM) and in assay [2] (first compound 8 µM) were 0.778 and 0.775, respectively.
For SW 900, the relative viability was 0.734 in assay [1] (first compound 0.08 µM); 0.78 in assay [1] (first compound 0.253 µM); 0.766 in assay [1] (first compound 2.53 µM); 0.717 in assay [1] (first compound 8 µM); 0.667 with Shikonin + Phenformin (first compound 0.01 µM); 0.589 with Shikonin + Phenformin (first compound 0.1 µM). The relative viability was determined as 0.666 in the assay with Shikonin + Phenformin (first compound 0.3162 µM); 0.661 with Shikonin + Phenformin (first compound 1 µM); 0.639 in assay [2] (first compound 0.08 µM); 0.38 in assay [2] (first compound 0.253 µM); 0.562 in assay [2] (first compound 2.53 µM); 0.548 in assay [2] (first compound 8 µM).

The values are drawn from the supplement of paper PMC10307832.
